According to article PMC8481536, “Wells–Dawson phosphotungstates as mushroom tyrosinase inhibitors: a speciation study” (Scientific Reports, 2021):

Assay: Charge density (q/m, charges per addenda metal ion) of POT anions
Assay type: physicochemical
Settings: for Charge density q/m of the anion: Wells–Dawson POTs and their products; for Charge density q/m of POT product Hx[α2-P2W17O61](10−x)−, x = 3 / Charge density q/m of POT product Hx[α2-P2W17O61](10−x)−, x = 4: product formed from the educt at pH 6.8
Description: The charge density of POMs, expressed in number of charges (q) per addenda metal ions (m), is a criterion to characterize the chaotropic behavior of POMs (Table S6)[49]–[53]. […] The activity of [P2W18]^6−, [P2W17]^10− and [P2W15]^12− solutions correlates with the amount of the dominant monolacunary anion [α2-P^V2W^VI17O61]^10− in Na-citrate buffer at pH 6.8 (Fig. 3, Scheme S1). For the unprotonated form of the active monolacunary Wells–Dawson anion [α2-P^V2W^VI17O61]^10− the q/m ratio is 0.59 (Table 2), however, the protonation of this anion in neutral solutions has previously been shown by electrochemical analysis in combination with theoretical calculations[47],[55]. For POMs the proton affinity difference between the terminal and bridging oxygen is around 11 kcal mol^−1[56], proving that the four oxygen atoms surrounding the lacuna are much more basic than the bridging and terminal O atoms (Fig. 1B), and thus prone to protonation. Electrospray-ionization mass spectrometry (ESI–MS) has already been successfully used for the protonation states assignment of Wells–Dawson POTs containing different heteroatoms. Consequently, ESI–MS has been applied to investigate the protonation state of monolacunary [α2-P^V2W^VI17O61]^10−. When recording ESI–MS for POMs in Na-citrate buffer, the relative intensity of citrate anion signals is almost 100%, suppressing POM signals. […] The spectra recorded in both solvents show signals for NaH4[α2-P^V2W^VI17O61]^5- at 838.0 and NaKH3[α2-P^V2W^VI17O61]^5- at 845.6 m/z, while species with lower protonation states have not been detected (Fig. S19). Therefore, the monolacunary anion [α2-P^V2W^VI17O61]^10− is present as the three-fold protonated anion H3[α2-P^V2W^VI17O61]^7- with a charge density of 0.41 and the four-fold protonated anion H4[α2-P^V2W^VI17O61]^6− with a charge density of 0.35. The predominant species in [P2W12]^12− is the wheel-shaped [P^V8W^VI48O184]^40− (23%), which can be protonated to H16[P^V8W^VI48O184]^24−[58] q/m = 0.5. Due to the compositional complexity of the hexalacunary anion it is impossible to accurately correlate its activity with the POTs’ charge density.
10 Summary of POT charge densities of Keggin and Wells-Dawson POTs
In order to facilitate comparison of the inhibitory capacities of the Keggin and Wells-Dawson POT samples tested in our laboratory against AbPPO4 and to obtain a structure-activity correlation, the charge densities (anionic charge per W addenda atom) of the species present […]
the charge densities, the following stability windows for POTs can be identified:
1) intact closed clusters: q/m ≈ 0.33 – 0.50
Structures with higher charge densities were not analyzed. Structures with a q/m value lower than 0.33 are prone to hydrolysis or reduction under suitable conditions, both leading to an increase in charge density.
2) lacunary clusters: q/m = 0.35 – 0.45
Structures with lower charge densities were not analyzed. Structures with a q/m value higher than 0.45 achieve stabilization by taking up protons for charge compensation. However, too […]
these pathways result in a decrease in charge density.
Overall, the preferred stable charge densities at neutral pH of both the intact and lacunary POTs […]
for intact clusters. This seems to be an intrinsic POT property as a combined result of 1) the reactivity of lacunary oxygen sites and 2) the hydrolytic susceptibility to hydroxide anions in aqueous solution in competition with electrostatic repulsion with the anionic POT charge. […]
metal centers in their oxygen-bound environment.
The scenario is different when looking at the POT interaction with the enzyme AbPPO4. Among […]
values show a clear correlation to the q/m values, with the lowest charge density corresponding to the highest protein affinity. But going to the larger Wells-Dawson archetype, comparing the active lacunary species H [PVWVI O ]4- (Keggin) and H [α -PV WVI O ](10-x)- (x = 3 or 4) (Wells- […]
charge densities. As stated in the main text, the basic inhibition effect shown by the Wells- […]

Row | Substance | Charge density q/m of the anion | Charge density q/m of POT product Hx[α2-P2W17O61](10−x)−, x = 3 | Charge density q/m of POT product Hx[α2-P2W17O61](10−x)−, x = 4 | Charge density q/m of the anion (listed as [PV2WVI15O56]12-) | Charge density q/m of the anion (listed as [P^V2W^VI15O56]^12−) | Charge density q/m of the anion (listed as H2[PV2WVI12O48]12-) | Charge density q/m of the anion (listed as H2[P^V2W^VI12O48]^12−)
1 | K6[α/β-P^V2W^VI18O62]·14H2O [[P2W18]^6−] | 0.33 | 0.41 | 0.35 | – | – | – | –
2 | K10[α2-P^V2W^VI17O61]·20H2O [[P2W17]^10−] | 0.59 | 0.41 | 0.35 | – | – | – | –
3 | K12[P^V2W^VI15O56]·24H2O [[P2W15]^12−] | – | 0.41 | 0.35 | 0.80 | 0.8 | – | –
4 | (NH4)12[H2P^V2W^VI12O48]·24H2O [[P2W12]^12−] | – | – | – | – | – | 1.00 | 1
